According to patent US6858647B2, “Retinoid compounds suited for antibacterial applications” (Galderma Research & Development S.N.C., priority 2000, dated 2005):
Values after ≈ are worked out from the molar mass of the structure shown. Where two headings read alike, the source gives them in different places.

What was measured:
[1] = tested on: Staphylococcus aureus CIP52.1; assay: Minimum inhibitory concentration (MIC), NCCLS dilution antimicrobial susceptibility test; format: cell-based
Description: The bacterium Staphylococcus aureus CIP52.1 may be used in order to determine for each test compound the minimum inhibitory concentration for the bacterium, or MIC, expressed in μM.
The technique employed to determine the minimum inhibitory concentration or MIC was that described in the publication entitled “National committee for clinical laboratory standards” Vol. 13, No. 25, December 1993; Methods for dilution antimicrobial susceptibility tests for bacteria that grow aerobically-third edition, approved standard”. This minimum inhibitory concentration gives an indication as to the bacteriostatic effect of the test compounds, i.e., the capacity of these compounds to stop the proliferation of the bacterium.
Each compound of the invention was tested at least three times. The average of the test results was calculated, along with the standard deviation. The reference compound used was gentamycin.
The technique employed to determine the MIC values was the same as that described in Example 1.
Each compound of the invention and each comparative example taken from the Pierre Fabre patent application No. FR-2,736,548 was tested at least three times. The mean of the test results was calculated, along with the standard deviation. The reference compound used was gentamycin.

RAR receptor = assay: Biological activity of RAR receptor antagonist / agonist type; details: stated in words, no test described
[2] = Staphylococcus aureus, CIP52, Table II, Example 1, mean of at least three tests, bacteriostatic effect, read-out: MIC RESULTS MEAN
[3] = Table II, Example 1, mean of at least three tests, bacteriostatic effect, read-out: MIC RESULTS MEAN
[4] = Staphylococcus aureus, CIP52, read-out: MIC RESULTS MEAN

MIC [1, 2] | MIC [1, 3] | Structure (SMILES) | further results
1.04 µM (≈ 0.383 µg/mL) | – | COc1cccc(C=CC#Cc2ccc(C(=O)O)cc2)c1-c1ccc(C)cc1 [Compound 3, 4-[4-(6-Methoxy-4′-methylbiphenyl-2-yl)but-3-en-1-ynyl]benzoic acid] | biological activity at RAR receptor (antagonist or agonist type) (RAR receptor): RAR receptor antagonist type
1.25 µM (≈ 0.516 µg/mL) | – | Cc1cc(O)c(C23CC4CC(CC(C4)C2)C3)cc1-c1ccc2cc(C(=O)O)ccc2c1 [Compound 4, 6-[2-Methyl-4-hydroxy-5-(1-adamantyl)phenyl]-2-naphthoic acid] | –
1.25 µM (≈ 0.443 µg/mL) | – | Cc1ccc(-c2ccccc2C=CC#Cc2ccc(C(=O)O)c(O)c2)cc1 [Compound 6, 2-Hydroxy-4-[4-(4′-methylbiphenyl-2-yl)but-3-en-1-ynyl]benzoic acid] | –
– | 1.66 µM (≈ 0.652 µg/mL) | COc1ccc(C#Cc2cc(C(=O)O)cs2)cc1C12CC3CC(CC(C3)C1)C2 [Compound 7] | biological activity at RAR receptor (antagonist or agonist type) (RAR receptor): RAR receptor agonist type
1.66 µM (≈ 0.585 µg/mL) | – | Cc1ccc(-c2ccc(C)cc2C=CC#Cc2ccc(C(=O)O)cc2)cc1 [Compound 8, 4-[4-(4,4′-Dimethylbiphenyl-2-yl)but-3-en-1-ynyl]benzoic acid] | –
– | 1.66 µM (≈ 0.791 µg/mL) | CC1(C)CCC(C)(C)c2cc(-c3cc(-c4ccc(C(=O)O)cc4)ccc3-c3ccc(O)cc3)ccc21 [Compound 9, 4-Hydroxy-2′(5,5,8,8-tetramethyl-5,6,7,8-tetrahydronaphthalen-2-yl) [1,1′,4′,1″]terphenyl-4″-carboxylic acid] | biological activity at RAR receptor (antagonist or agonist type) (RAR receptor): RAR receptor agonist type
– | 1.66 µM (≈ 0.791 µg/mL) | CC1(C)CCC(C)(C)c2cc(-c3cc(-c4ccc(C(=O)O)cc4O)ccc3-c3ccccc3)ccc21 [Compound 10, 2″-Hydroxy-2′-(5,5,8,8-tetramethyl-5,6,7,8-tetrahydronaphthalen-2-yl) [1,1′,4′,1″]terphenyl-4″-carboxylic acid] | biological activity at RAR receptor (antagonist or agonist type) (RAR receptor): RAR receptor agonist type
2.08 µM (≈ 0.993 µg/mL) | – | O=C(O)c1ccc2cc(-c3cc(Br)c(O)c(C45CC6CC(CC(C6)C4)C5)c3)ccc2c1 [Compound 11, 6-(3-Adamantan-1-yl-5-bromo-4-hydroxyphenyl)-naphthalene-2-carboxylic acid] | biological activity at RAR receptor (antagonist or agonist type) (RAR receptor): RAR receptor agonist type
2.08 µM (≈ 0.733 µg/mL) | – | Cc1ccc(-c2c(C)cccc2C=CC#Cc2ccc(C(=O)O)cc2)cc1 [Compound 12, 4-[4-(6,4′-Dimethylbiphenyl-2-yl)but-3-en-1-ynyl]benzoic acid] | –
– | 2.08 µM (≈ 0.937 µg/mL) | CC1(C)CCSc2ccc(-c3cc(-c4ccc(C(=O)O)cc4)ccc3-c3ccccc3)cc21 [Compound 13, 2′-(4,4-Dimethylthiochroman-6-yl) [1,1′,4′,1″]terphenyl-4″-carboxylic acid] | biological activity at RAR receptor (antagonist or agonist type) (RAR receptor): RAR receptor agonist type
2.5 µM (≈ 0.911 µg/mL) | – | CC1(C)CCC(C)(C)c2cc3sc(-c4ccc(C(=O)O)cc4)cc3cc21 [Compound 15, 4-(5,5,8,8-Tetramethyl-5,6,7,8-tetrahydronaphtho-[2,3-b]thiophen-2-yl)benzoic acid] | biological activity at RAR receptor (antagonist or agonist type) (RAR receptor): RAR receptor agonist type
2.5 µM (≈ 1.3 µg/mL) | – | CCCCCCCCCON=C(C(=O)Nc1ccc(C(=O)O)cc1)c1ccc2c(c1)C(C)(C)CCC2(C)C [Compound 17, 4-[2-Nonyloxyimino-2-(5,5,8,8-tetramethyl-5,6,7,8-tetrahydronaphthalen-2-yl)acetylamino]benzoic acid] | –
2.5 µM (≈ 1.19 µg/mL) | – | COCCOCOc1ccc(C#Cc2ccc(C(=O)O)c(O)c2)cc1C12CC3CC(CC(C3)C1)C2 [Compound 18, 4-[3-Adamantan-1-yl-4-(2-methoxyethoxymethoxy)-phenylethynyl]-2-hydroxybenzoic acid] | –
2.5 µM (≈ 0.901 µg/mL) | – | CC1(C)CCC(C)(C)c2cc3cc(-c4ccc(CO)c(O)c4)ccc3cc21 [Compound 20, 2-Hydroxymethyl-5-(5,5,8,8-tetramethyl-5,6,7,8-tetrahydroanthracen-2-yl)phenol] | –
– | – | Cc1cc2c(cc1[Se]C#Cc1ccc(C(=O)O)c(O)c1)C(C)(C)CCC2(C)C [Compound 22, 2-Hydroxy-4-(3,5,5,8,8-pentamethyl-5,6,7,8-tetrahydronaphthalen-2-ylselanylethynyl)benzoic acid] | MIC [1, 4]: 2.5 µM (≈ 1.1 µg/mL)
– | 2.50 µM (≈ 1.23 µg/mL) | COc1cc2c(cc1-c1cc(-c3ccc(C(=O)O)cc3)ccc1-c1ccccc1)C(C)(C)CCC2(C)C [Compound 23, 2′-(3-Methoxy-5,5,8,8-tetramethyl-5,6,7,8-tetrahydronaphthalen-2-yl) [1,1′,4′,1″]terphenyl-4″-carboxylic acid] | –
3.33 µM (≈ 1.46 µg/mL) | – | CCCCCCCCCC(C)(C)c1cc(C(=O)Nc2ccc(C(=O)O)cc2)ccc1OC [Compound 25, 4-[3-(1,1-Dimethyldecyl)-4-methoxybenzoylamino]-benzoic acid] | –
3.33 µM (≈ 1.58 µg/mL) | – | CCCCCCOc1ccc(C(=O)Nc2ccc(C(=O)O)cc2)cc1C12CC3CC(CC(C3)C1)C2 [Compound 26, 4-(3-Adamantan-1-yl-4-hexyloxybenzoylamino)benzoic acid] | –
– | 3.33 µM (≈ 1.28 µg/mL) | OCc1ccc2cc(-c3ccc(O)c(C45CC6CC(CC(C6)C4)C5)c3)ccc2c1 [Compound 27, 6-[3-(1-Adamantyl)-4-hydroxyphenyl]-2-napthylmethanol] | –
3.33 µM (≈ 1.25 µg/mL) | – | CC1(C)CCC(C)(C)c2cc3cc(-c4ccc(C(=O)O)c(O)c4)ccc3cc21 [Compound 28, 2-Hydroxy-4-(5,5,8,8-tetramethyl-5,6,7,8-tetrahydroanthracen-2-yl)benzoic acid] | –
3.33 µM (≈ 1.29 µg/mL) | – | O=C(O)c1ccc2oc(-c3ccc(O)c(C45CC6CC(CC(C6)C4)C5)c3)cc2c1 [Compound 29, 2-(3-Adamantan-1-yl-4-hydroxyphenyl)benzofuran-5-carboxylic acid] | –
– | – | Cc1cc2c(cc1[Se]C#Cc1ccc(C(=O)O)cc1)C(C)(C)CCC2(C)C [Compound 33, 4-(3,5,5,8,8-Pentamethyl-5,6,7,8-tetrahydronaphthalen-2-ylselanylethynyl)benzoic acid] | MIC [1, 4]: 3.33 µM (≈ 1.42 µg/mL)
4.16 µM (≈ 2.04 µg/mL) | – | CCCCCCCC/C=C(\C(=O)Nc1ccc(C(=O)O)cc1)c1ccc2c(c1)C(C)(C)CCC2(C)C [Compound 36, 4-[(Z)-2-(5,6,7,8-tetrahydro-5,5,8,8-tetramethyl-2-naphthyl)-2-undecenamido]benzoic acid] | –
5 µM (≈ 2.46 µg/mL) | – | CCCCCCCON=C(C(=O)Nc1ccc(C(=O)O)cc1)c1ccc2c(c1)C(C)(C)CCC2(C)C [Compound 39, 4-[2-Heptyloxyimino-2-(5,5,8,8-tetramethyl-5,6,7,8-tetrahydronaphthalen-2-yl)acetylamino]-benzoic acid] | –
5 µM (≈ 1.87 µg/mL) | – | CC1(C)CCC(C)(C)c2cc(Oc3ccc4cc(C(N)=O)ccc4c3)ccc21 [Compound 40, 6-(5,5,8,8-Tetramethyl-5,6,7,8-tetrahydronaphthalen-2-yloxy)naphthalene-2-carboxylic acid amide] | –
– | 5.00 µM (≈ 2.41 µg/mL) | COc1ccc(-c2ccc3cc(C(=O)NCCN(C)C)ccc3c2)cc1C12CC3CC(CC(C3)C1)C2 [Compound 41, (2-Dimethylaminoethyl)amide of 6-(3-adamantan-1-yl-4-methoxyphenyl)naphthalene-2-carboxylic acid] | –
– | – | CC1(C)CCC(C)(C)c2cc([Se]C#Cc3ccc(C(=O)O)c(O)c3)ccc21 [Compound 42, 2-Hydroxy-4-(5,5,8,8-tetramethyl-5,6,7,8-tetrahydronaphthalen-2-ylselanylethynyl)benzoic acid] | MIC [1, 4]: 5 µM (≈ 2.14 µg/mL)
– | 5.00 µM (≈ 2.6 µg/mL) | COCOc1cc2c(cc1-c1cc(-c3ccc(C(=O)O)cc3)ccc1-c1ccccc1)C(C)(C)CCC2(C)C [Compound 43, 2′-(3-Methoxymethoxy-5,5,8,8-tetramethyl-5,6,7,8-tetrahydronaphthalen-2-yl) [1,1′,4′,1″]terphenyl-4″-carboxylic acid] | –
– | 5.00 µM (≈ 2.38 µg/mL) | CC1(C)CCC(C)(C)c2cc(-c3cc(-c4ccc(C(=O)O)cc4)ccc3-c3cccc(O)c3)ccc21 [Compound 44, 3-Hydroxy-2′-(5,5,8,8-tetramethyl-5,6,7,8-tetrahydronaphthalen-2-yl) [1,1′,4′,1″]terphenyl-4″-carboxylic acid] | –
5 µM (≈ 2.01 µg/mL) | – | COc1cc(C)c(-c2cccc(C=CC(=O)O)c2)cc1C12CC3CC(CC(C3)C1)C2 [Compound 45, 3-(5′-Adamantan-1-yl-4′-methoxy-2′-methylbiphenyl-3-yl)acrylic acid] | –

Structure (SMILES) | MIC [1, 2] | MIC [1, 3] | further results
CC1(C)CCC(C)(C)c2cc(-c3cc(-c4ccc(C(=O)O)cc4)ccc3-c3ccccc3)c(O)cc21 [Compound 14, 2′-(3-Hydroxy-5,5,8,8-tetramethyl-5,6,7,8-tetrahydronaphthalen-2-yl) [1,1′,4′,1″]terphenyl-4″-carboxylic acid] | – | 2.08 µM (≈ 0.991 µg/mL) | biological activity at RAR receptor (antagonist or agonist type) (RAR receptor): RAR receptor agonist type
CC(CO)COc1ccc(C#Cc2ccc(C(=O)O)cc2)cc1C12CC3CC(CC(C3)C1)C2 (stereo not drawn) [Compound 19, 4-[[3-(1-Adamantyl)-4-[(2-methyl-3-hydroxypropyloxy)phenyl]ethynyl]]benzoic acid] | – | 2.50 µM (≈ 1.11 µg/mL) | –
CCCCOC(c1ccc2c(c1)C(C)(C)CCC2(C)C)c1ccc2cc(C(=O)O)ccc2c1 (stereo not drawn) [Compound 24, 6-[Butoxy-(5,5,8,8-tetramethyl-5,6,7,8-tetrahydronaphthalen-2-yl)methyl]naphthalene-2-carboxylic acid] | 3.33 µM (≈ 1.48 µg/mL) | – | –
CCCOc1ccc(-c2ccc3c(c2)C(C)(C)CCC3(C)C)cc1-c1ccc(C(=O)O)cc1 [Compound 38, 2′-Propoxy-5′-(5,5,8,8-tetramethyl-5,6,7,8-tetrahydronaphthalen-2-yl)bipheny-1-4-carboxylic acid] | – | 4.16 µM (≈ 1.84 µg/mL) | –
